From the supplement of paper PMC10307832

How the values were obtained:
Assay in all cases: relative viability (nuclei count vs DMSO), 5 days (fraction); higher = more cells survive
GSK126 + Crizotinib = compound: CC[C@H](C)N1C=C(C2=C(C=C(C=C21)C3=CN=C(C=C3)N4CCNCC4)C(=O)NCC5=C(C=C(NC5=O)C)C)C [GSK126] + C[C@@H](Oc1cc(-c2cnn(C3CCNCC3)c2)cnc1N)c1c(Cl)ccc(F)c1Cl [Crizotinib] (partner 1 µM)
Summary of the method: (§1)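 After 5 days of treatment, lung cancer cells in 1536-well plates were fixed and stained in a single step (final 0.05% Triton X-100, 1% formaldehyde, 1 ug/ml Hoechst) and their nuclei counted on 4× images. Treatment had been applied by pin tool the day after seeding as one drug alone or as a fixed anchor-drug dose with five library-drug doses (not always all listed) in √10 steps. Relative viability is the nuclei count of treated wells divided by that of vehicle wells, and values are medians of duplicate plates.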

MLN4924 + Alpelisib = compound: NS(=O)(=O)OC[C@@H]1C[C@@H](n2ccc3c(N[C@H]4CCc5ccccc54)ncnc32)C[C@@H]1O [MLN4924] + Cc1nc(NC(=O)N2CCC[C@H]2C(N)=O)sc1-c1ccnc(C(C)(C)C(F)(F)F)c1 [Alpelisib] (partner 2 µM)
Summary of the method: as §1

Carboplatin + Alpelisib = compound: C1CC(C1)(C(=O)O)C(=O)O.[NH2-].[NH2-].[Pt+2] [Carboplatin] + Cc1nc(NC(=O)N2CCC[C@H]2C(N)=O)sc1-c1ccnc(C(C)(C)C(F)(F)F)c1 [Alpelisib] (partner 2 µM)
Summary of the method: as §1

GSK126 + Alpelisib = compound: CC[C@H](C)N1C=C(C2=C(C=C(C=C21)C3=CN=C(C=C3)N4CCNCC4)C(=O)NCC5=C(C=C(NC5=O)C)C)C [GSK126] + Cc1nc(NC(=O)N2CCC[C@H]2C(N)=O)sc1-c1ccnc(C(C)(C)C(F)(F)F)c1 [Alpelisib] (partner 2 µM)
Summary of the method: as §1

| Cell Line | relative viability (GSK126 + Crizotinib; first compound 0.08 µM) | relative viability (GSK126 + Crizotinib; first compound 0.253 µM) | relative viability (GSK126 + Crizotinib; first compound 0.8 µM) | relative viability (GSK126 + Crizotinib; first compound 2.53 µM) | relative viability (GSK126 + Crizotinib; first compound 8 µM) | relative viability (MLN4924 + Alpelisib; first compound 0.04 µM) | relative viability (MLN4924 + Alpelisib; first compound 0.1265 µM) | relative viability (MLN4924 + Alpelisib; first compound 0.4 µM) | relative viability (MLN4924 + Alpelisib; first compound 1.265 µM) | relative viability (MLN4924 + Alpelisib; first compound 4 µM) | relative viability (Carboplatin + Alpelisib; first compound 0.08 µM) | relative viability (Carboplatin + Alpelisib; first compound 0.253 µM) | relative viability (Carboplatin + Alpelisib; first compound 0.8 µM) | relative viability (Carboplatin + Alpelisib; first compound 2.53 µM) | relative viability (Carboplatin + Alpelisib; first compound 8 µM) | relative viability (GSK126 + Alpelisib; first compound 0.08 µM) | relative viability (GSK126 + Alpelisib; first compound 0.253 µM) | relative viability (GSK126 + Alpelisib; first compound 0.8 µM) | relative viability (GSK126 + Alpelisib; first compound 2.53 µM) | relative viability (GSK126 + Alpelisib; first compound 8 µM) |
| --- | --- | --- | --- | --- | --- | --- | --- | --- | --- | --- | --- | --- | --- | --- | --- | --- | --- | --- | --- | --- |
| NCI-H322M | 0.965 | 0.887 | 0.833 | 1.03 | 0.873 | 0.783 | 0.786 | 0.713 | 0.259 | 0.321 | 0.74 | 0.574 | 0.605 | 0.739 | 0.701 | 0.819 | 0.836 | 0.817 | 0.78 | 0.737 |
| NCI-H358 | 0.733 | 0.577 | 0.667 | 0.608 | 0.395 | 1.01 | 0.899 | 0.34 | 0.189 | 0.162 | 1.14 | 0.881 | 0.845 | 0.824 | 0.671 | 1.08 | 1.07 | 0.857 | 0.935 | 0.904 |
| NCI-H441 | 0.936 | 0.732 | 0.642 | 0.441 | 0.86 | 0.549 | 0.526 | 0.296 | 0.123 | 0.168 | 0.896 | 0.694 | 0.643 | 0.651 | 0.692 | 0.756 | 0.717 | 0.76 | 0.566 | 0.753 |
| NCI-H460 | 1.13 | 0.929 | 0.811 | 0.9 | 0.875 | 0.677 | 0.688 | 0.662 | 0.0819 | 0.0199 | 0.462 | 0.424 | 0.325 | 0.322 | 0.0696 | 0.673 | 0.486 | 0.369 | 0.504 | 0.431 |
| NCI-H520 | 0.885 | 0.62 | 0.644 | 0.747 | 0.642 | 0.535 | 0.432 | 0.308 | 0.22 | 0.181 | 0.894 | 1.06 | 0.897 | 0.908 | 0.737 | 0.946 | 0.758 | 0.931 | 0.864 | 0.783 |
| NCI-H596 | 1.04 | 0.98 | 0.863 | 1.06 | 0.891 | 0.468 | 0.61 | 0.426 | 0.664 | 0.52 | 0.475 | 0.574 | 0.458 | 0.423 | 0.445 | 0.681 | 0.445 | 0.397 | 0.51 | 0.556 |
| NCI-H647 | 1.17 | 1.04 | 0.96 | 1.18 | 0.986 | 1.04 | 0.653 | 0.18 | 0.0485 | 0.0516 | 1.23 | 1.14 | 1.23 | 1.12 | 0.771 | 1.33 | 1.34 | 1.1 | 1.05 | 0.919 |
| NCI-H650 | 0.912 | 0.741 | 0.658 | 0.755 | 0.594 | 1.06 | 0.513 | 0.339 | 0.204 | 0.232 | 1.13 | 1 | 1.06 | 0.856 | 0.757 | 1.24 | 1.11 | 1.17 | 1.23 | 0.993 |
| NCI-H661 | 0.924 | 1.04 | 0.967 | 0.787 | 0.787 | 0.664 | 0.887 | 0.502 | 0.231 | 0.351 | 0.567 | 0.66 | 0.703 | 0.595 | 0.648 | 0.802 | 0.638 | 0.657 | 0.478 | 0.58 |
| NCI-H727 | 0.923 | 0.755 | 0.806 | 0.836 | 0.815 | 0.474 | 0.292 | 0.245 | 0.194 | 0.213 | 0.76 | 0.483 | 0.509 | 0.514 | 0.363 | 0.649 | 0.493 | 0.643 | 0.636 | 0.704 |
| NCI-H838 | 0.798 | 0.856 | 0.834 | 0.772 | 0.752 | 0.795 | 0.658 | 0.261 | 0.168 | 0.148 | 1.09 | 1.07 | 0.953 | 0.995 | 0.979 | 1.12 | 0.982 | 0.866 | 0.845 | 0.809 |
| NCI-H1299 | 0.952 | 0.959 | 0.779 | 0.941 | 0.873 | 1.03 | 1.07 | 0.71 | 0.333 | 0.263 | 1.06 | 1.11 | 0.997 | 1.02 | 0.909 | 1.12 | 1 | 1.01 | 0.994 | 1.18 |
| NCI-H1355 | 1.16 | 1.14 | 0.981 | 1.06 | 1.02 | 0.831 | 0.865 | 0.776 | 0.35 | 0.152 | 0.885 | 0.866 | 0.843 | 0.687 | 0.721 | 0.935 | 0.836 | 0.762 | 0.876 | 0.901 |
| NCI-H1437 | 0.99 | 0.914 | 0.879 | 0.797 | 0.794 | 0.905 | 0.977 | 0.755 | 0.422 | 0.101 | 0.988 | 0.989 | 0.929 | 0.947 | 0.828 | 1.07 | 0.934 | 0.869 | 0.824 | 0.993 |
| NCI-H1563 | 0.922 | 0.755 | 0.848 | 0.78 | 0.718 | 1.36 | 1.31 | 0.898 | 0.564 | 0.566 | 1.04 | 0.925 | 0.91 | 0.921 | 0.984 | 1.02 | 0.988 | 1.02 | 0.807 | 0.828 |
| NCI-H1651 | 0.907 | 0.871 | 0.921 | 0.871 | 0.911 | 1.11 | 0.961 | 0.793 | 0.362 | 0.168 | 0.846 | 1.1 | 0.907 | 0.876 | 0.573 | 1.13 | 0.946 | 0.933 | 0.938 | 0.936 |
| NCI-H1666 | 1.33 | 0.838 | 0.938 | 1.04 | 1.23 | 1.18 | 0.832 | 0.432 | 0.148 | 0.205 | 1.16 | 0.909 | 0.855 | 0.773 | 0.543 | 1 | 0.964 | 1.05 | 0.962 | 1.12 |
| NCI-H1703 | 0.806 | 0.313 | 0.42 | 0.592 | 0.583 | 0.22 | 0.177 | 0.189 | 0.135 | 0.121 | 0.373 | 0.335 | 0.417 | 0.407 | 0.421 | 0.364 | 0.343 | 0.36 | 0.417 | 0.482 |
| NCI-H1734 | 0.676 | 0.682 | 0.72 | 0.689 | 0.642 | 0.947 | 0.95 | 0.246 | 0.139 | 0.118 | 0.647 | 0.757 | 0.632 | 0.67 | 0.589 | 0.789 | 0.605 | 0.654 | 0.698 | 0.682 |
| NCI-H1755 | 0.842 | 0.915 | 0.898 | 0.86 | 0.765 | 0.835 | 0.638 | 0.475 | 0.172 | 0.145 | 0.928 | 0.894 | 0.97 | 0.932 | 0.894 | 0.927 | 0.974 | 0.951 | 0.866 | 0.883 |
| NCI-H1792 | 1.03 | 1.01 | 1.03 | 0.996 | 0.951 | 0.685 | 0.758 | 0.944 | 0.441 | 0.21 | 0.802 | 0.634 | 0.515 | 0.444 | 0.6 | 0.703 | 0.77 | 0.78 | 0.761 | 0.636 |
| NCI-H1915 | 1.02 | 0.93 | 0.917 | 0.878 | 0.912 | 1.03 | 0.865 | 0.892 | 0.216 | 0.17 | 1.05 | 1.06 | 0.966 | 0.893 | 0.675 | 1.16 | 1.05 | 1.08 | 1.05 | 1.09 |
| NCI-H1944 | 1.3 | 1.08 | 1.1 | 1.05 | 1.23 | 1.02 | 1.02 | 1.04 | 0.23 | 0.188 | 0.98 | 0.857 | 0.813 | 0.701 | 0.643 | 0.92 | 0.858 | 0.839 | 0.843 | 0.947 |
| NCI-H1975 | 0.919 | 0.91 | 0.886 | 0.96 | 0.949 | 0.694 | 1.11 | 1.26 | 0.339 | 0.21 | 0.669 | 0.655 | 0.728 | 0.598 | 0.666 | 0.741 | 0.649 | 0.607 | 0.643 | 0.616 |
| NCI-H1993 | 0.912 | 0.768 | 0.924 | 0.865 | 0.941 | 0.808 | 0.555 | 0.596 | 0.569 | 0.541 | 0.663 | 0.745 | 0.643 | 0.62 | 0.678 | 0.632 | 0.72 | 0.773 | 0.748 | 0.661 |
| NCI-H2009 | 1.08 | 0.982 | 1.06 | 0.968 | 1.06 | 0.987 | 0.791 | 0.299 | 0.151 | 0.114 | 1.3 | 1.11 | 1.15 | 0.973 | 0.695 | 1.26 | 1.16 | 1.17 | 1.13 | 1.14 |
